# From ChEMBL document CHEMBL4011641, “Prodrugs of Pyrazolo[3,4-d]pyrimidines: From Library Synthesis to Evaluation as Potential Anticancer Agents in an Orthotopic Glioblastoma Model” (J Med Chem, 2017)
# Legend:
# [1] = Antitumor activity against human U87 cells xenografted in nude immunodeficient CD1 mouse assessed as mean survival time at 50 mg/kg, po administered every other day (reference value: 30 day); format: functional, U-87MG ATCC
# [2] = Half life in PBS buffer at 100 uM at pH 7.4 by UV/LC-MS analysis; format: physicochemical
# [3] = Half life in methanol at 100 uM by UV/LC-MS analysis; format: physicochemical
# [4] = Metabolic stability in human liver microsomes assessed as parent compound remaining at 50 uM after 1 hr in presence of NADPH regenerating system by UV/LC-MS analysis; format: ADME, microsome; conditions: read-out: Stability
# [5] = Drug uptake in cytoplasm of human U87 cells at 20 uM after 2 hrs by UV/LC-MS analysis; format: ADME
# [6] = Drug uptake in cytoplasm of human U87 cells at 20 uM after 5 hrs by UV/LC-MS analysis; format: ADME
# Liver carboxylesterase 1 = target: T1, Liver carboxylesterase 1 (Homo sapiens, UniProt P23141); experiment: Drug metabolism assessed as human CES1-mediated compound hydrolysis at 10 to 100 uM after 1 hr by UV/HPLC-MS analysis; format: ADME
# T1 sequence (P23141 whole entry): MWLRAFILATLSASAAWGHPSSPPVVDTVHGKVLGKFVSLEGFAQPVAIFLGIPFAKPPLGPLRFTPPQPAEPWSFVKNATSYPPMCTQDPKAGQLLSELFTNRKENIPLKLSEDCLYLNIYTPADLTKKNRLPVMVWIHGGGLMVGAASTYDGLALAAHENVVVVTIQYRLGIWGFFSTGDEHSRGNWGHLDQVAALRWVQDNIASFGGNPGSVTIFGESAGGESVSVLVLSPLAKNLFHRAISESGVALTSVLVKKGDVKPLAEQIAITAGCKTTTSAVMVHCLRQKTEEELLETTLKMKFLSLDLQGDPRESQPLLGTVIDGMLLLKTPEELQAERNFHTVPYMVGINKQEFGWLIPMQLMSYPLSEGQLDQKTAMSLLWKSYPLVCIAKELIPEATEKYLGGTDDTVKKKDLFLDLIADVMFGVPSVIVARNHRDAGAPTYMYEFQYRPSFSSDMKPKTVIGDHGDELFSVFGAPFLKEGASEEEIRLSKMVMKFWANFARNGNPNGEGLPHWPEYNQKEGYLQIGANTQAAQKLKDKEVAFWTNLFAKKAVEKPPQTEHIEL
# [7] = Half life in mouse plasma by UV/LC-MS analysis; format: ADME, cell-free
# [8] = Metabolic stability in mouse liver microsomes assessed as unmetabolized compound remaining at 50 uM after 1 hr in presence of NADPH regenerating system by UV/LC-MS analysis; format: ADME, microsome; conditions: read-out: Stability
# [9] = Plasma concentration in BALB/C mouse at 50 mg/kg, ip via bolus administration measured at 24 hrs post dose by UV/LC-MS; format: ADME, organism-based
# Plasma [10] = experiment: Prodrug conversion in BALB/C mouse plasma assessed as N-(3-bromophenyl)-1-(2-chloro-2-phenylethyl)-6-(2-morpholinoethylthio)-1H-pyrazolo[3,4-d]pyrimidin-4-amine formation at 50 mg/kg, ip via bolus administration measured at 24 hrs post dose by UV/LC-MS; format: ADME, organism-based; conditions: in vivo
# Brain [11] = experiment: Drug uptake in BALB/C mouse brain at 50 mg/kg, ip via bolus administration measured at 24 hrs post dose by UV/LC-MS analysis; format: ADME, organism-based; conditions: in vivo
# [12] = Cmax in BALB/C mouse at 50 mg/kg, ip administered via bolus dose using DMSO formulation measured at 1 to 24 hrs post dose by UV/LC-MS analysis; format: ADME, organism-based; parameters: dose 50 mg/kg, route intraperitoneal; conditions: in vivo
# [13] = Tmax in BALB/C mouse at 50 mg/kg, ip administered via bolus dose using DMSO formulation measured at 1 to 24 hrs post dose by UV/LC-MS analysis; format: ADME, organism-based; conditions: in vivo
# [14] = MRT in BALB/C mouse at 50 mg/kg, ip administered via bolus dose using DMSO formulation measured at 1 to 24 hrs post dose by UV/LC-MS analysis; format: ADME, organism-based; conditions: in vivo
# [15] = AUC (0 to infinity) in BALB/C mouse at 50 mg/kg, ip administered via bolus dose using DMSO formulation measured at 1 to 24 hrs post dose by UV/LC-MS analysis; format: ADME, organism-based; parameters: dose 50 mg/kg, time infinity, route intraperitoneal; conditions: in vivo
# [16] = AUC (0 to 24 hrs) in BALB/C mouse at 50 mg/kg, ip administered via bolus dose using DMSO formulation measured at 1 to 24 hrs post dose by UV/LC-MS analysis; format: ADME, organism-based; parameters: dose 50 mg/kg, time < 24 hr, route intraperitoneal; conditions: in vivo
# [17] = Plasma clearance in BALB/C mouse at 50 mg/kg, ip administered via bolus dose using DMSO formulation measured at 1 to 24 hrs post dose by UV/LC-MS analysis; format: ADME, organism-based
# [18] = Half life in BALB/C mouse at 50 mg/kg, ip administered via bolus dose using DMSO formulation measured at 1 to 24 hrs post dose by UV/LC-MS analysis; format: ADME, organism-based; conditions: in vivo
# Plasma [19] = experiment: Plasma concentration in BALB/C mouse at 50 mg/kg, ip via bolus administration measured at 24 hrs post dose by UV/LC-MS relative to N-(3-bromophenyl)-1-(2-chloro-2-phenylethyl)-6-(2-morpholinoethylthio)-1H-pyrazolo[3,4-d]pyrimidin-4-amine; format: ADME, organism-based; conditions: in vivo
# [20] = Prodrug activation in human U87 cells assessed as N-(3-bromophenyl)-1-(2-chloro-2-phenylethyl)-6-(2-morpholinoethylthio)-1H-pyrazolo[3,4-d]pyrimidin-4-amine formation at 20 uM up to 25 hrs by UV/LC-MS analysis; format: cell-based; conditions: u-87mg atcc
# Brain [21] = experiment: Prodrug conversion in BALB/C mouse brain assessed as N-(3-bromophenyl)-1-(2-chloro-2-phenylethyl)-6-(2-morpholinoethylthio)-1H-pyrazolo[3,4-d]pyrimidin-4-amine formation at 50 mg/kg, ip via bolus administration measured at 24 hrs post dose by UV/LC-MS; format: ADME, organism-based; conditions: in vivo
# Kidney [22] = experiment: Drug uptake in BALB/C mouse kidney at 50 mg/kg, ip via bolus administration measured at 24 hrs post dose by UV/LC-MS; format: ADME, organism-based; conditions: in vivo
# Kidney [23] = experiment: Prodrug conversion in BALB/C mouse kidney assessed as N-(3-bromophenyl)-1-(2-chloro-2-phenylethyl)-6-(2-morpholinoethylthio)-1H-pyrazolo[3,4-d]pyrimidin-4-amine formation at 50 mg/kg, ip via bolus administration measured at 24 hrs post dose by UV/LC-MS; format: ADME, organism-based; conditions: in vivo
# [24] = Drug uptake in BALB/C mouse adipose tissue at 50 mg/kg, ip via bolus administration measured at 24 hrs post dose by UV/LC-MS; format: ADME, organism-based; conditions: in vivo
# [25] = Prodrug conversion in BALB/C mouse adipose tissue assessed as N-(3-bromophenyl)-1-(2-chloro-2-phenylethyl)-6-(2-morpholinoethylthio)-1H-pyrazolo[3,4-d]pyrimidin-4-amine formation at 50 mg/kg, ip via bolus administration measured at 24 hrs post dose by UV/LC-MS; format: ADME, organism-based; conditions: in vivo
# Liver [26] = experiment: Drug uptake in BALB/C mouse liver at 50 mg/kg, ip via bolus administration measured at 24 hrs post dose by UV/LC-MS; format: ADME, organism-based; conditions: in vivo
# Liver [27] = experiment: Prodrug conversion in BALB/C mouse liver assessed as N-(3-bromophenyl)-1-(2-chloro-2-phenylethyl)-6-(2-morpholinoethylthio)-1H-pyrazolo[3,4-d]pyrimidin-4-amine formation at 50 mg/kg, ip via bolus administration measured at 24 hrs post dose by UV/LC-MS; format: ADME, organism-based; conditions: in vivo
# [28] = target: Tyrosine-protein kinase ABL1 (Homo sapiens, UniProt P00519)
# Chain of Tyrosine-protein kinase ABL1 (P00519 whole entry): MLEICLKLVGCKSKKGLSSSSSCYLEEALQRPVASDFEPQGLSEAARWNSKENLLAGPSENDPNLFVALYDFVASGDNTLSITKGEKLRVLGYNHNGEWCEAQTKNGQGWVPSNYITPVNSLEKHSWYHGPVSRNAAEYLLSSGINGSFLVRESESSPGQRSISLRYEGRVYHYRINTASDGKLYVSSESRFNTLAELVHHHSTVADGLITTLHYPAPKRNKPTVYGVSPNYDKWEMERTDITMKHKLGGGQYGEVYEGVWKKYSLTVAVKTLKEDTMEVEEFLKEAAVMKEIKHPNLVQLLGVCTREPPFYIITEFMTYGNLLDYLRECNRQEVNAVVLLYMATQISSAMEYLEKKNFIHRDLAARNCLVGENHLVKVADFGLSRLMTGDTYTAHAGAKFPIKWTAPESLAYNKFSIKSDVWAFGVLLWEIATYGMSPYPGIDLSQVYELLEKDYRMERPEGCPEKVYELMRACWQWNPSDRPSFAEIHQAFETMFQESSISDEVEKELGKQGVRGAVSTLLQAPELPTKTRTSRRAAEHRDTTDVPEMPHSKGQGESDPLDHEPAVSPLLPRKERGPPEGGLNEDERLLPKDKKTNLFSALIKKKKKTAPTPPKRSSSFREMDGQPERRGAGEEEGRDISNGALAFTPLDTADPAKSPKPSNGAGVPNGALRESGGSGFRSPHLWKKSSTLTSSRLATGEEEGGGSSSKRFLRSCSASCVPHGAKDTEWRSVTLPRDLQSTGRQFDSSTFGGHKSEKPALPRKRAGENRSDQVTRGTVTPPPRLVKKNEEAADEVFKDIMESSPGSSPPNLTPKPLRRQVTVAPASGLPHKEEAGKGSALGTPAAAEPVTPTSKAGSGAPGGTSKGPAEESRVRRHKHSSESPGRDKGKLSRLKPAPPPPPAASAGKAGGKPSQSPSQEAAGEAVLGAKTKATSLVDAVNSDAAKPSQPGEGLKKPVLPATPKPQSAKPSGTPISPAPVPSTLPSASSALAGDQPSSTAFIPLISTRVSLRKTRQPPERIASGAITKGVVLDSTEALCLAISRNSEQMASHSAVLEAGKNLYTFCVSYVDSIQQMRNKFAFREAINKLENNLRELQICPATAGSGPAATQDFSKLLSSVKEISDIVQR
# Description: Inhibition of human wild type full length N-terminal GST/6His-tagged ABL (P118 to S535 residues) expressed in Sf9 cells using abltide as substrate after 5 mins in presence of [gamma-32P]ATP by scintillation counting
# cells [29] = conditions: Homo sapiens, U-87 MG, 24 h
# Description: Cytotoxicity against human U87 cells assessed as reduction in cell viability after 24 hrs by trypan blue assay
# cells [30] = conditions: Homo sapiens, U-87 MG, 48 h
# Description: Cytotoxicity against human U87 cells assessed as reduction in cell viability after 48 hrs by trypan blue assay
# cells [31] = conditions: Homo sapiens, U-87 MG, 72 h
# Description: Cytotoxicity against human U87 cells assessed as reduction in cell viability after 72 hrs by trypan blue assay
# physchem [32] = conditions: PAMPA
# Description: Apparent permeability at 500 uM after 5 hrs by Gastro-intestinal-based PAMPA
# physchem [33] = conditions: PAMPA; remark: listed apart in the source
# Description: Apparent permeability at 500 uM after 5 hrs by Blood-Brain Barrier-based PAMPA
# physchem [34] = conditions: aqueous
# Description: Aqueous solubility of compound at 1 mg after 24 hrs by UV/LC-MS analysis
# [35] = target: Proto-oncogene tyrosine-protein kinase Src (Homo sapiens, UniProt P12931); experiment: biochemical
# Chain of Proto-oncogene tyrosine-protein kinase Src (P12931 2-536 limits assumed): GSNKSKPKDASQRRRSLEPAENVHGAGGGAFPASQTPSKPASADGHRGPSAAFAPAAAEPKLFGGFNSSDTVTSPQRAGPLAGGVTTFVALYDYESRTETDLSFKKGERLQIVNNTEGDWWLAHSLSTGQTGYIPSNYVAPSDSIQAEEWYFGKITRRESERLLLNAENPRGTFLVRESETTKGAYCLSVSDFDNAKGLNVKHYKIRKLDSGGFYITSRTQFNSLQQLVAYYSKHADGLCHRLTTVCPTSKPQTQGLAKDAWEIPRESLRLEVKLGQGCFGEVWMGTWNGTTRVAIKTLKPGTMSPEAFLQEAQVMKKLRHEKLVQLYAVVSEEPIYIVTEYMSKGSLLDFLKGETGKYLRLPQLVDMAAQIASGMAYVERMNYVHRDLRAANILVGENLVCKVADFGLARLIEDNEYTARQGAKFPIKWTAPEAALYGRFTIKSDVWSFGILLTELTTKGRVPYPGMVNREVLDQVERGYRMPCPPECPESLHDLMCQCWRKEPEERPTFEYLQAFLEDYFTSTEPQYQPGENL
# Description: Inhibition of human wild type full length N-terminal GST/6His-tagged SRC (M1 to L536 residues) expressed in baculovirus infected Sf9 cells using src peptide as substrate after 5 mins in presence of [gamma-32P]ATP by scintillation counting method
smiles,measurement,setting,value
CN1CCN(CCOC(=O)N(c2cccc(Br)c2)c2nc(SCCN3CCOCC3)nc3c2cnn3CC(Cl)c2ccccc2)CC1 (stereo unspecified),MST,[1],49 days
same,half-life at 100 µM,[2],> 48 h
same,half-life at 100 µM,[3],> 48 h
same,"remaining at 1 h, 50 µM",[4],93.6%
same,Drug uptake,[5],Active
same,Drug uptake,[6],Active
same,Drug metabolism,Liver carboxylesterase 1,Metabolite_Notdetected
same,half-life,[7],1.16 h
same,"remaining at 1 h, 50 µM",[8],93.1%
same,concentration at 24 h,[9],5.4 µM
same,Drug metabolism,Plasma [10],3.3 nmol/mL
same,Drug uptake,Brain [11],6.4 nmol/g
same,Cmax,[12],8.78 µM
same,Tmax,[13],1 h
same,MRT,[14],33.3 h
same,AUC(0-inf),[15],265 µM·h
same,AUC(0-t) at 24 h,[16],136 µM·h
same,CL/F,[17],0.14 mL/min
same,half-life,[18],23.8 h
same,fold change (FC),Plasma [19],2
same,Drug metabolism,[20],Metabolite_Detected
same,Drug metabolism,Brain [21],5.2 nmol/g
same,Drug uptake,Kidney [22],6.8 nmol/g
same,Drug metabolism,Kidney [23],2.6 nmol/g
same,Drug uptake,[24],1.8 nmol/g
same,Drug metabolism,[25],20.5 nmol/g
same,Drug uptake,Liver [26],0.8 nmol/g
same,Drug metabolism,Liver [27],3.6 nmol/g
same,Ki,[28],> 100 µM
same,IC50,cells [29],7.5 µM
same,IC50,cells [30],5.2 µM
same,IC50,cells [31],1.8 µM
same,"Papp at 5 h, 500 µM",physchem [32],2.13 ×10⁻⁶ cm/s
same,"Papp at 5 h, 500 µM",physchem [33],2.91 ×10⁻⁶ cm/s
same,solubility at 24 h,physchem [34],8.7 µg/mL
same,Ki,[35],> 100 µM
